Test [1] addresses Vascular endothelial growth factor receptor 2 (Homo sapiens) (UniProt P35968). The experiment in a line: Inhibition of human KDR cytoplasmic domain expressed in baculovirus assessed as substrate phosphorylation using fluorescence-labelled peptides as substrate at 9 uM after 90 mins by microfluidic peptide phosphorylation assay.
Test [2] concerns the target Tyrosine-protein kinase Lck (Homo sapiens) (UniProt P06239). In words: Inhibition of human full length LCK expressed in baculovirus assessed as substrate phosphorylation using fluorescence-labelled peptides as substrate at 8 uM after 90 mins by microfluidic peptide phosphorylation assay.
In test [3] the target is T1, Serine/threonine-protein kinase D1 (Homo sapiens) (UniProt Q15139).
T1 sequence (whole entry): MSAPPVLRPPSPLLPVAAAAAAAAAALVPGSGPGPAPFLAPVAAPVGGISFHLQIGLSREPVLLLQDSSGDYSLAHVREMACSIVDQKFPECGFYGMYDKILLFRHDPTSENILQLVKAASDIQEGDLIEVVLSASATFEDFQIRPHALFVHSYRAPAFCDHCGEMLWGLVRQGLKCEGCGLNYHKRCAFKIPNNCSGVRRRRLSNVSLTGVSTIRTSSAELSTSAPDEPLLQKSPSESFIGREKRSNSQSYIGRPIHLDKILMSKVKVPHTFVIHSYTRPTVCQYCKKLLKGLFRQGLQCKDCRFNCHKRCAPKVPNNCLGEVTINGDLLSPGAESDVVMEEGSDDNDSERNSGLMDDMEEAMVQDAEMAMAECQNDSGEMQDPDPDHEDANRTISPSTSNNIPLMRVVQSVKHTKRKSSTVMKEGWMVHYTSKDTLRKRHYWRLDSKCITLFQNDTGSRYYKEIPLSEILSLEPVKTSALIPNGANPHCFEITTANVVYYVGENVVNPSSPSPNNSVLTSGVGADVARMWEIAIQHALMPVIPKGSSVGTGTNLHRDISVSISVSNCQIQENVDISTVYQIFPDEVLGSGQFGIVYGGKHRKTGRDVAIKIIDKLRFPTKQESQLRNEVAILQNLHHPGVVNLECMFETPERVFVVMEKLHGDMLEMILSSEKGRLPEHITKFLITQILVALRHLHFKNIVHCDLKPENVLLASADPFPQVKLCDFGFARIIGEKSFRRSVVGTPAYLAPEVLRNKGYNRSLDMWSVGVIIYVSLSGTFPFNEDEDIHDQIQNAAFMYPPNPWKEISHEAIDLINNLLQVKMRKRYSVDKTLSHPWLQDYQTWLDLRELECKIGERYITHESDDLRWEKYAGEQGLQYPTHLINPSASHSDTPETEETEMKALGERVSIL
In words: Inhibition of human full length PKD1 expressed in baculovirus assessed as substrate phosphorylation using fluorescence-labelled peptides as substrate at […] after 90 mins by microfluidic peptide phosphorylation assay.

The target of test [4] is T2, Cytoplasmic tyrosine-protein kinase BMX (Homo sapiens) (UniProt P51813).
T2 sequence (whole entry): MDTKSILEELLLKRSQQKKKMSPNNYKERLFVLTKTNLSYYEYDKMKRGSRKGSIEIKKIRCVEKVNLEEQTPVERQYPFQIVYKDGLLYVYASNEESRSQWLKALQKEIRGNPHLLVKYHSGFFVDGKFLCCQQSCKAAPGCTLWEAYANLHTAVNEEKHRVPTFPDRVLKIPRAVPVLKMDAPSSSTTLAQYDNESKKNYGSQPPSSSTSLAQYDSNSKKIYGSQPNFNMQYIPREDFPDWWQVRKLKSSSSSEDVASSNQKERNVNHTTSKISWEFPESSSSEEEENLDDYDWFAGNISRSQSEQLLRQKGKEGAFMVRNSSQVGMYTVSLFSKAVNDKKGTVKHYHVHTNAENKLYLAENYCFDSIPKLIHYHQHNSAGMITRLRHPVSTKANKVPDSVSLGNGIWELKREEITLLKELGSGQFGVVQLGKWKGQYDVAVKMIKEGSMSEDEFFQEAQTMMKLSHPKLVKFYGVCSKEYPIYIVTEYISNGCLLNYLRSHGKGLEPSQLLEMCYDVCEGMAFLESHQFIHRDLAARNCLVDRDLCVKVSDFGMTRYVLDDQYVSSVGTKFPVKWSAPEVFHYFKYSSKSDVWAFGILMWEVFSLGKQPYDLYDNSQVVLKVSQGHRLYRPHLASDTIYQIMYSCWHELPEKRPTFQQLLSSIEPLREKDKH
The experiment in a line: Inhibition of human full length BMX expressed in baculovirus assessed as substrate phosphorylation using fluorescence-labelled peptides as substrate at 2 uM after 90 mins by microfluidic peptide phosphorylation assay.

The target in test [5] is T3, Serine/threonine-protein kinase Chk1 (Homo sapiens) (UniProt O14757).
T3 sequence (whole entry): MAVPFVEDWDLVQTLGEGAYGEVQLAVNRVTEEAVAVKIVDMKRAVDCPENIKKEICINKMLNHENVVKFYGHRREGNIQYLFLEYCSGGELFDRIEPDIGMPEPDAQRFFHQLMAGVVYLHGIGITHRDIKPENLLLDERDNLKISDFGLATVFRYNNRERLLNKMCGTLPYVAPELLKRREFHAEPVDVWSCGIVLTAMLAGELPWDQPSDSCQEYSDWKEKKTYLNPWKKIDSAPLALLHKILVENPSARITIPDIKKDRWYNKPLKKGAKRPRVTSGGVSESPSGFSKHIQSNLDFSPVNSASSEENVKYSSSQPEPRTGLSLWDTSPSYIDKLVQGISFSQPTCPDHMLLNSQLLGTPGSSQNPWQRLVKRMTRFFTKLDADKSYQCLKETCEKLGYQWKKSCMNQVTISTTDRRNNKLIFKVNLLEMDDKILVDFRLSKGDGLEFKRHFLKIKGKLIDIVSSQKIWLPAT
The experiment in a line: Inhibition of human full length CHK1 expressed in baculovirus assessed as substrate phosphorylation using fluorescence-labelled peptides as substrate at 70 uM after 90 mins by microfluidic peptide phosphorylation assay.

The target of test [6] is T4, Serine/threonine-protein kinase Nek2 (Homo sapiens) (UniProt P51955).
T4 sequence (whole entry): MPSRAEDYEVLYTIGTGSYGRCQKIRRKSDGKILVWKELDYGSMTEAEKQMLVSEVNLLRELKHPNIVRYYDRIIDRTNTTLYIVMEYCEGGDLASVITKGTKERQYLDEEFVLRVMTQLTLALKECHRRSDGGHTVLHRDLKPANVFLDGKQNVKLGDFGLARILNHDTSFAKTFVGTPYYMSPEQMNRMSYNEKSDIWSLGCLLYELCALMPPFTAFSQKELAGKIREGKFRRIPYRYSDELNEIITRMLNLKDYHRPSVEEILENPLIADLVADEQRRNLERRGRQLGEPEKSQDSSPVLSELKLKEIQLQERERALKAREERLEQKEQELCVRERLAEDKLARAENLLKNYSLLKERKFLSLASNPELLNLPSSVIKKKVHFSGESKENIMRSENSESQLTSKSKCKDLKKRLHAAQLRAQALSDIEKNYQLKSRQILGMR
In words: Inhibition of human full length NEK2 expressed in baculovirus assessed as substrate phosphorylation using fluorescence-labelled peptides as substrate at 70 uM after 90 mins by microfluidic peptide phosphorylation assay.

Our source for the inhibition values is ChEMBL document CHEMBL3132769, “Fragment growing to retain or alter the selectivity of anchored kinase hinge-binding fragments” (Medchemcomm, 2014).

In general, inhibition refers to the share of the control response that was lost under treatment.

Sequence of Tyrosine-protein kinase Lck (Homo sapiens) (P06239 2-509 limits assumed): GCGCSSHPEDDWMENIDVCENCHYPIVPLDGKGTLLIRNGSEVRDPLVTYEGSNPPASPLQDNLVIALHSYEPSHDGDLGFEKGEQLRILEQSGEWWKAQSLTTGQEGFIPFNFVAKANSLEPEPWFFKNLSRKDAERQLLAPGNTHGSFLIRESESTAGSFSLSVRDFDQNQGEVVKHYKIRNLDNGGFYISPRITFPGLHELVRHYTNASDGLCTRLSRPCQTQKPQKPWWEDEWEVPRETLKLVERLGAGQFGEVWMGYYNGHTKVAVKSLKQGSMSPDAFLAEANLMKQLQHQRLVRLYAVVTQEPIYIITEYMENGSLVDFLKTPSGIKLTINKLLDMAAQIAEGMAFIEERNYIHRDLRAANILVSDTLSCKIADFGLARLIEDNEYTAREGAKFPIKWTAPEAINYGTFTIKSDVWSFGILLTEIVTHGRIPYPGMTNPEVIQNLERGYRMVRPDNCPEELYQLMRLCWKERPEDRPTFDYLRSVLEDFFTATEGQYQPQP
Sequence of Vascular endothelial growth factor receptor 2 (Homo sapiens) (P35968 whole entry, the tested form may be a part): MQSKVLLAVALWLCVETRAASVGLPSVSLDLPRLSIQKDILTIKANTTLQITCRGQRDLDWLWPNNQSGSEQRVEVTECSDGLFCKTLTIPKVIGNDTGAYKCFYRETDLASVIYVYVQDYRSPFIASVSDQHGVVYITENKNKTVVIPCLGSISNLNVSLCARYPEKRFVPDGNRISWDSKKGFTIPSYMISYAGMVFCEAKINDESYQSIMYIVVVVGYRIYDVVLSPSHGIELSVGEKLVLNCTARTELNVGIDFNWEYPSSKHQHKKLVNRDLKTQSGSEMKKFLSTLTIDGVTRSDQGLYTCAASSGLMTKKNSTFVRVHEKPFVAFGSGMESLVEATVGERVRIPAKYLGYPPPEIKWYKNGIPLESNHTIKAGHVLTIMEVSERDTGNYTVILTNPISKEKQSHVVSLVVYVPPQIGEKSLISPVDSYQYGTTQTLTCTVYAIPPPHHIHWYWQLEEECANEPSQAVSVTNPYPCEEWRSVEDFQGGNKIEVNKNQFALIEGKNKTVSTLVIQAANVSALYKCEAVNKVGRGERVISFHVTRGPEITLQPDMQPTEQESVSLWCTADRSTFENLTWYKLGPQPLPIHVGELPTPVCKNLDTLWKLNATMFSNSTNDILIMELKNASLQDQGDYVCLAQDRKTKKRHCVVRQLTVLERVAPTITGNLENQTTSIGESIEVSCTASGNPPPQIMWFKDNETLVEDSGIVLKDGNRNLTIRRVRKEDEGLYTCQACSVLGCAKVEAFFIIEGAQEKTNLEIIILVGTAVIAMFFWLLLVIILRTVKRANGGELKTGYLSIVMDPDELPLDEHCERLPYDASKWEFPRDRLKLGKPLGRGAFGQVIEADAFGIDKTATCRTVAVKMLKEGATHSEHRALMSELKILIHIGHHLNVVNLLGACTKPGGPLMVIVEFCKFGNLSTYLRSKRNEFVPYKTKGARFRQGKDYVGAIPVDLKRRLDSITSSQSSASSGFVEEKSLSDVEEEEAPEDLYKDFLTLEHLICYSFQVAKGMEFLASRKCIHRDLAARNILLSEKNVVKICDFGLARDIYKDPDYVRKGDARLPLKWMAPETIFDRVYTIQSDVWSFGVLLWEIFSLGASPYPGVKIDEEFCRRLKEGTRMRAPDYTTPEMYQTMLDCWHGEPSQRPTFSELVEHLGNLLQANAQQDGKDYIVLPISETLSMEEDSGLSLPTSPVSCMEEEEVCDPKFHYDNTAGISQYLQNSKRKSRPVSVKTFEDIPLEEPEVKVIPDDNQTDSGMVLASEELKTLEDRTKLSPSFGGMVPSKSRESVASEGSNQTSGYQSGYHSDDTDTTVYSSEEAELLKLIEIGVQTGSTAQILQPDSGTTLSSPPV

As to `NCC1CN(c2ncnc3[nH]c4cnccc4c23)CCO1` (stereo unspecified), the inhibition in test [1] was 63.5%. `NCC1CCN(c2ncnc3[nH]ccc23)CC1`: the inhibition in test [2] is 48.5%.

As to `COC(=O)c1cnc(Nc2cnc(C#N)cn2)cc1NCC1CCNCC1`, the inhibition in test [3] was 3%. Consider `NC1CCN(c2ncnc3[nH]ccc23)CC1`, for which the inhibition in test [4] is 2%. Take `CNCc1ccc(-c2ncnc3[nH]cnc23)cc1`: the inhibition in test [5] is 72%; in test [6], 15.5%.
